According to article PMC9000469 (Molecules, 2022):
Where “and” joins values, the source holds several entries; their conditions need not be identical. Identical values can stand only once. Entries after “also recorded” stand apart in the source; their conditions may differ. Counter-ions that a name gives are not always drawn. Like-named read-outs stand apart in the source and are kept apart here.

Key:
[1] = Permeability across the PermeaPad 96-well plate biomimetic barrier; format: in vitro ADME; conditions: for Effect of medium pH (6.8 versus 7.4) on permeability across the PermeaPad barrier: Student t-test, p > 0.05; for Permeability across the PermeaPad barrier by passive diffusion (in words): pH 6.8 and 7.4; for Papp on the Permeapad membrane: pH not stated in the sentence (equals the pH 7.4 value of Figure 4)
Procedure: The […]® 96-well plate was purchased from InnoME GmbH ([…], Germany). The plate consists of a bottom plate, a screen plate with a lipid barrier and a lid. The surface area for permeation studying is 0.15 cm^2. The permeability tests across a biomimetic barrier of drug substances were performed from the bottom to the top compartment. The compounds were dissolved in PBS with pH 6.8 or 7.4. […] The permeation tests for all compounds were performed at room temperature (25 °C). HPLC methods were used to determine the concentration of the compound transported. The apparent permeability coefficient (Papp) was calculated according to the protocol described by di Cagno et al..

[2] = set-up: method as in PMID 25840123; conditions: concentration 5 mM; cited from earlier work
Caco-2 monolayer [3] = conditions: previously published results, cited from earlier work
[4] = Physicochemical properties of compounds (pKa, logP); conditions: internal data
Source text: PA was obtained from Ethifarm (Ethifarm, Poznan, Poland). Reference substances CAF and NF were obtained from Sigma Aldrich (Merck Group, Darmstadt, Germany).

PEPT1 = test system: PEPT1; set-up: method as in PMID 19519280; conditions: cited from earlier work
[5] = conditions of high temperatures and relative humidity; cited from earlier work
Caco-2 monolayer [6] = conditions: for Papp across Caco-2 monolayer: basolateral to apical, 2 h, pH 7.4, 37 °C, mean ± SD, n = 3
Procedure: For the transport study, the Caco-2 cells were seeded at 4 × 10^5 cells/well on the permeable cell culture inserts with a 0.4 µm pore diameter (Millipore-Merck Group, Darmstadt, Germany) placed in 6-well plates. The cells were cultured for 22 days in the incubator under optimal culture conditions (37 °C, 5% CO2, and 95% air) to their spontaneity differentiating. The integrity of the monolayer was tested by measuring the Trans Epithelial Electrical Resistance (TEER) every 48 h using a Millicel ERS-2 Voltohmmeter (Millipore-Merck Group, Darmstadt, Germany). The cells’ monolayer with an average TEER value > 600 Ohm × cm^2 was considered to be suitable for permeability testing.
The permeability tests across the Caco-2 monolayer of substances were performed from basolateral to the apical compartment (B–A). Plates with cell culture inserts were incubated at 37 °C with shaking at 100 rpm for 2 h. Drug substances were dissolved in the transport buffer solution (HBSS with 25 mM HEPES, pH 7.4) and placed into a donor compartment. The solution volume in the apical and basolateral compartments was maintained at 2 mL and 4 mL, respectively. The samples (150 µL) from the acceptor compartment were taken at 15 min intervals and were replaced with fresh reheated (37 °C) buffer. The HPLC analysis described below was used to determine the concentration of the compound transported. Transport kinetics and the apparent permeability coefficient (Papp) were calculated according to the protocols described by Tavelin et al. and Hubatsch et al..
Concentrations of all compounds transported were determined by the reverse phase HPLC with UV-VIS detection. HPLC analysis was conducted on Waters UPLC Acquity H-class apparatus with Empower 3.0 software (Waters Corporation, Milford, MA, USA). […] The isocratic flow rate was set as 0.6 mL/min and the detection wavelength on λ = 215 nm.

[7] = cited from earlier work
[8] = cited from earlier work; remark: listed apart in the source
PEPT2 = test system: PEPT2; set-up: method as in PMID 19519280; conditions: cited from earlier work
Caco-2 cells = experiment: MTT cytotoxicity assay in Caco-2 cells; conditions: 0.0–2.0 mg/mL, 2 h exposure
Procedure: After leaving them overnight, different concentrations of analyzed substances in HBSS pH 7.4 were added.. Cells were exposed to the substances for 2 h (time of transport across monolayer) in an incubator under optimal culture conditions. After incubation, the solution was removed and the mixture of DMEM cell culture medium and MTT (5 mg/mL) was added. Cells were incubated for 2 h, and then the resulting formazan crystals were dissolved in DMSO. The absorbance was measured using an Elx-800 absorbance microplate reader (Biotek, Winooski, VT, USA) at wavelength 540 nm.

Structure (SMILES): Cn1c(=O)c2c(ncn2C)n(C)c1=O [CAF, caffeine]
- Effect of medium pH (6.8 versus 7.4) on permeability across the PermeaPad barrier [1]: no significant difference
- Permeability across the PermeaPad barrier by passive diffusion (in words) [1]: highest transport
- Permeability across the PermeaPad barrier by passive diffusion (in words) ([1]; listed as Caffeine): high permeable
- Papp in the PermeaPad barrier [2]: 24 ×10⁻⁶ cm/s

Structure (SMILES): CCN(CC)CCOC(=O)C(Cc1cccc2ccccc12)CC1CCCO1 (stereo not shown) [NF, Naftidrofuryl oxalate]
- Effect of medium pH (6.8 versus 7.4) on permeability across the PermeaPad barrier [1]: slightly lower permeability of NF in medium at pH 7.4
- Papp at 4 h ([1]; not told, both 0.2 mg/mL and 0.125 mg/mL, read-out: Papp through the PermeaPad membrane, bound stated for both concentrations): > 10 ×10⁻⁶ cm/s
- Permeability across the PermeaPad barrier by passive diffusion (in words) [1]: relatively high and high
- Papp through the Caco-2 monolayer (Caco-2 monolayer [3]; 0.125 mg/mL): 84.1 ×10⁻⁶ cm/s
- Papp through the Caco-2 monolayer (Caco-2 monolayer [3]; 0.2 mg/mL): 78.8 ×10⁻⁶ cm/s
- pKa [4]: 4.1

Structure (SMILES): CCC[C@H](N[C@@H](C)C(=O)N1[C@H](C(=O)O)C[C@@H]2CCCC[C@@H]21)C(=O)OCC.N=C(N)NCCC[C@H](N)C(=O)O [PA, Perindopril arginine]
- Papp on the Permeapad membrane ([1]; 1.0 mg/mL): 35.7 ×10⁻⁶ cm/s
- Papp on the Permeapad membrane ([1]; 2.0 mg/mL): 43.9 ×10⁻⁶ cm/s
- Effect of medium pH (6.8 versus 7.4) on permeability across the PermeaPad barrier [1]: did not affect; also recorded: no significant differences
- Permeability across the PermeaPad barrier by passive diffusion (in words) [1]: lowest permeability; also recorded: relatively low permeability
- Interaction with the intestinal peptide transporter PEPT1 (PEPT1): relatively poor interaction
- Shelf life and stability of the arginine salt compared with the erbumine salt [5]: greater shelf life and stability
- Compound Permeability (Caco-2 monolayer) (Caco-2 monolayer [6]; 1.0 mg/mL): low (when Papp is lower than 1 × 10^−6 cm/s, the substance is considered poorly permeable)
- Papp across Caco-2 monolayer (Caco-2 monolayer [6]; 1.0 mg/mL): 0.72 ± 0.04 × 10^−6 cm/s
- Papp across Caco-2 monolayer (Caco-2 monolayer [6]; 2.0 mg/mL): 1.94 ± 0.96 × 10^−6 cm/s
- Permeability (BCS characterisation) [7]: low permeability
- Permeability (characterisation) [7]: low permeability
- Time to peak plasma concentrations (absorption completed) ([8]; after oral administration): approximately 1 h
- Absolute oral bioavailability [8]: 75%
- pKa (strongest acid) [4]: 3.17
- pKa (strongest base) [4]: 5.67
- logP ([4]; two values printed per compound without explanation): 0.65 and 0.56
- Interaction with the intestinal peptide transporter PEPT2 (PEPT2): relatively poor interaction
- Cytotoxicity to the Caco-2 cell line (MTT) (Caco-2 cells): not cytotoxic; also recorded: No effect

Structure (SMILES): CCC[C@H](N[C@@H](C)C(=O)N1[C@H](C(=O)O)C[C@@H]2CCCC[C@@H]21)C(=O)O [Perindoprilat, perindoprilat]
- Average bioavailability of the active metabolite ([8]; after oral PA): about 25%
- Mean half-life [8]: 5 to 11 h

Structure (SMILES): CCC[C@H](N[C@@H](C)C(=O)N1[C@H](C(=O)O)C[C@@H]2CCCC[C@@H]21)C(=O)OCC [perindopril]
- Fraction metabolized into perindoprilat during the first pass of the liver ([8]; oral administration, no ref printed with the sentence): 30–50%
